Assay results as given in PubChem BioAssay AID1845210 (Molecular Pharmacology Branch, DTP, NCI, 2023).

Test system: NCI-H226 complex tumor spheroids, viability
Assay: Anticancer human tumor NCI-H226 cell line growth inhibition;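 also: spheroids exposed to compound for 7 days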;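 as to viability, T/C: 100% = DMSO vehicle control viability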
Conditions: for IC50: curve of first compound; for viability, T/C: stronger effect = lower value
Outline: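 Complex tumor spheroids combined malignant cells with endothelial cells and mesenchymal stem cells. DNA-damaging drugs and DNA repair inhibitors were tested alone and in combination, at half-log dilutions down from clinical Cmax (top 10 microM if Cmax unknown), 0.25% DMSO final.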

[1] = second compound 1 µM, first compound 0.0316 µM
[2] = second compound 1 µM, first compound 0.1 µM
[3] = second compound 1 µM, first compound 0.316 µM
[4] = second compound 1 µM, first compound 1 µM
[5] = second compound 1 µM, first compound 3.16 µM
[6] = second compound 1 µM, first compound 10 µM
[7] = second compound 3.16 µM, first compound 0.0316 µM
[8] = second compound 3.16 µM, first compound 0.1 µM
[9] = second compound 3.16 µM, first compound 0.316 µM
[10] = second compound 3.16 µM, first compound 1 µM
[11] = second compound 3.16 µM, first compound 3.16 µM
[12] = second compound 3.16 µM, first compound 10 µM
[13] = second compound 10 µM, first compound 0.0316 µM
[14] = second compound 10 µM, first compound 0.1 µM
[15] = second compound 10 µM, first compound 0.316 µM
[16] = second compound 10 µM, first compound 1 µM
[17] = second compound 10 µM, first compound 3.16 µM
[18] = second compound 10 µM, first compound 10 µM
[19] = second compound 31.6 µM, first compound 0.0316 µM
[20] = second compound 31.6 µM, first compound 0.1 µM
[21] = second compound 31.6 µM, first compound 0.316 µM
[22] = second compound 31.6 µM, first compound 1 µM
[23] = second compound 31.6 µM, first compound 3.16 µM
[24] = second compound 31.6 µM, first compound 10 µM
[25] = second compound 100 µM, first compound 0.0316 µM
[26] = second compound 100 µM, first compound 0.1 µM
[27] = second compound 100 µM, first compound 0.316 µM
[28] = second compound 100 µM, first compound 1 µM
[29] = second compound 100 µM, first compound 3.16 µM
[30] = second compound 100 µM, first compound 10 µM

Compound	IC50 (second compound 1 µM) [µM]	IC50 (second compound 3.16 µM) [µM]	IC50 (second compound 10 µM) [µM]	IC50 (second compound 31.6 µM) [µM]	IC50 (second compound 100 µM) [µM]	viability, T/C [1] [%]	viability, T/C [2] [%]	viability, T/C [3] [%]	viability, T/C [4] [%]	viability, T/C [5] [%]	viability, T/C [6] [%]	viability, T/C [7] [%]	viability, T/C [8] [%]	viability, T/C [9] [%]	viability, T/C [10] [%]	viability, T/C [11] [%]	viability, T/C [12] [%]	viability, T/C [13] [%]	viability, T/C [14] [%]	viability, T/C [15] [%]	also measured
CC1COCCN1c1cc(-c2ccnn2C)c2ccnc(-c3ccn[nH]3)c2n1 (stereo not given) + Cn1nnc2c(C(N)=O)ncn2c1=O	1.89	1.75	2.01	2.02	2.41	88.1	86.8	79.3	59.6	42.4	35.9	98.8	86.1	78.4	50.8	47.8	34.9	105	88.6	73	viability, T/C [16]: 59.3%; viability, T/C [17]: 43.1%; viability, T/C [18]: 36.1%; viability, T/C [19]: 90.2%; viability, T/C [20]: 91.5%; viability, T/C [21]: 74.7%; viability, T/C [22]: 58.3%; viability, T/C [23]: 46.1%; viability, T/C [24]: 37.9%; viability, T/C [25]: 116%; viability, T/C [26]: 107%; viability, T/C [27]: 92.9%; viability, T/C [28]: 61.5%; viability, T/C [29]: 46.2%; viability, T/C [30]: 42.5%
COc1cc(C)[nH]c(=O)c1CN1CCc2c(Cl)cc(C(OC)C3COC3)c(Cl)c2C1=O (stereo not given) + Cn1nnc2c(C(N)=O)ncn2c1=O	> 10	> 10	> 10	> 10	> 10	133	131	130	133	129	132	117	138	124	121	136	108	132	128	125	viability, T/C [16]: 136%; viability, T/C [17]: 128%; viability, T/C [18]: 127%; viability, T/C [19]: 124%; viability, T/C [20]: 144%; viability, T/C [21]: 132%; viability, T/C [22]: 125%; viability, T/C [23]: 135%; viability, T/C [24]: 145%; viability, T/C [25]: 118%; viability, T/C [26]: 132%; viability, T/C [27]: 136%; viability, T/C [28]: 146%; viability, T/C [29]: 137%; viability, T/C [30]: 150%
COc1ccc([C@@H](O)c2cc(-c3ncnc4cc(N5CCOCC5)ccc34)c(F)cc2Cl)nn1 + Cn1nnc2c(C(N)=O)ncn2c1=O	4.71	2.97	3.43	3.69	4.53	94.3	100	89	66.8	60.8	37.5	95.2	101	92.2	67.9	52.1	38.1	86.9	89.4	90.4	viability, T/C [16]: 73.8%; viability, T/C [17]: 52.1%; viability, T/C [18]: 34.4%; viability, T/C [19]: 98.5%; viability, T/C [20]: 91.8%; viability, T/C [21]: 91%; viability, T/C [22]: 67.5%; viability, T/C [23]: 54.2%; viability, T/C [24]: 36.7%; viability, T/C [25]: 111%; viability, T/C [26]: 107%; viability, T/C [27]: 95.8%; viability, T/C [28]: 75.9%; viability, T/C [29]: 56.1%; viability, T/C [30]: 38.1%
